Experiments:
Eμ-Myc lymphoma cells [1] = assay: Luciferased lymphoma cells injected into C57BL/6 mice, treatment from day 2; assay type: in vivo, mouse
Method: (§1) D: injection of 1 Mio luciferased lymphoma cells in C57B16 mice.
(§2) Mouse experiments: Black6 mice between 6 and 8 weeks of age were injected with 1 Mio luciferased lymphoma cells. […] Bioluminescence was measured with injection of […].
In order to verify the importance of the Hh pathway for lymphoma growth and expansion in mice, we injected 1e6 lymphoma cells expressing luciferase into syngeneic C57BL/6 mice. […] Luciferase levels were measured by bioluminescence imaging twice a week.

lymphoma cells (Ly9) = tested on: lymphoma cells (Ly9)
Method: as §1
Immunohistochemistry: Single colour DAB-immunoperoxidase staining was performed as described. Antibodies were obtained from Santa Cruz Biotechnologies (for Shh antibody, N-19), NeoMarkers (for Ki67 antibody) and Promega (for PARP antibody).
as §2
We next wished to determine the importance of Hh signalling in established lymphomas.

Eμ-Myc lymphoma cells [2] = assay: Luciferase assay and light microscopy of luciferased lymphoma cells on stromal layer; assay type: cell-based, mouse; conditions: for Response rate to cyclopamine treatment (responsive/tested cultures) / Response rate to cyclopamine treatment: Myc-lymphomas; for Response rate to cyclopamine treatment: >80% growth inhibition at 5 μM
Method: For Shh pathway inhibition on stroma, 6200 stroma cells were seeded per 96-well. After 24 hours 20,000 luciferased lymphoma cells were seeded on the stroma cells and 2 hours later compound or DMSO was added. Luciferase assay was performed with Bright-glow reagent as described. To generate cells overexpressing Hh pathway members, lymphoma cells were infected with Smo, Smo 535, Smo 562, Gli1 and Fused-pMSCV IRES GFP constructs and then sorted for GFP positive cells.
In order to investigate whether the Hh signalling pathway does indeed contribute to the survival and proliferation of lymphoma cells growing on an intact stromal layer, lymphoma cells were luciferased using a retrovirus expressing a puromycin/Luc fusion cassette. 2×10E4 lymphoma cells constitutively expressing luciferase were added to each 96-well containing a stromal layer (not expressing luciferase) isolated from Cdkn2a^−/− mice. A total of 34 individual Eμ-Myc-lymphomas and 8 Cdkn2a-lymphomas were tested. A luciferase assay was performed as a readout for cell viability and proliferation and results were also documented by light microscopy.

[3] = 50 mg/kg twice a day for 3 days, vs control group

**Q.** `CC1=C2C[C@H]3[C@@H](CC=C4C[C@@H](O)CC[C@@]43C)[C@@H]2CC[C@]12O[C@@H]1C[C@H](C)CN[C@H]1[C@H]2C` [cyclopamine] was tested. Which median survival (Eμ-Myc lymphoma cells [1]; 25 mg/kg/day s.c., max 21 days, control group 16 days) did it give?
**A.** 20 days

**Q.** And the “signs of disease (bioluminescence imaging)” value (Eμ-Myc lymphoma cells [1]; 50 and 100 mg/kg/day s.c. from day 2, twelve days post-injection)?
**A.** only minimal signs of disease

**Q.** And the “response (survival curves)” value (Eμ-Myc lymphoma cells [1]; lymphoma with in vitro resistance and overexpression of Gli3, 100 mg/kg/day)?
**A.** only minimal response

**Q.** And the response in vivo (Eμ-Myc lymphoma cells [1]; two additional lymphoma cells (1 plasmoblastoma and 1 B-cell lymphoma), similar conditions)?
**A.** responsive in vivo

**Q.** What about the “infiltration of the spleen” value (lymphoma cells (Ly9); [3]) of the same compound?
**A.** markedly decreased

**Q.** And the “lymphoma mass in lymph nodes and other organs” value (lymphoma cells (Ly9); [3])?
**A.** reduced lymphoma mass

**Q.** What about the “PARP staining of spleen” value (lymphoma cells (Ly9); after 3 days of treatment) of the same compound?
**A.** apoptosis induction

**Q.** And the “histopathology of spleens (H&E)” value (lymphoma cells (Ly9); after 3 days of treatment)?
**A.** reduction of lymphoma cells in the spleen

**Q.** And the “Ki67 staining of spleen” value (lymphoma cells (Ly9); after 3 days of treatment, compared to vehicle group)?
**A.** strong decrease of high proliferative cells

**Q.** And the “decrease of spleen weight” value (lymphoma cells (Ly9); three-day treatment, compared to vehicle control group)?
**A.** ~50%

**Q.** And the IC50 (Eμ-Myc lymphoma cells [2]; Mus musculus, 48 h, read-out: IC50 (concentration needed for 50% of maximal inhibition))?
**A.** 0.5 to 2 µM

**Q.** What about the “clearance of lymphoma cells from the stromal layer” value (Eμ-Myc lymphoma cells [2]; Myc-Ly4, 5 μM, within 48 h) of the same compound?
**A.** complete clearance

**Q.** What about the “Response rate to cyclopamine treatment (responsive/tested cultures)” value (shortened to “Response rate … (responsive/tested cultures)”) (Eμ-Myc lymphoma cells [2]; B-cell lymphoma) of the same compound?
**A.** 8/10 and (8/10)

**Q.** What about the “Response rate … (responsive/tested cultures)” value (Eμ-Myc lymphoma cells [2]; mixed lymphomas) of the same compound?
**A.** 1/2

**Q.** What about the “Response rate to cyclopamine treatment” value (Eμ-Myc lymphoma cells [2]; mixed lymphomas) of the same compound?
**A.** 50%

**Q.** What about the “Response rate … (responsive/tested cultures)” value (Eμ-Myc lymphoma cells [2]; plasmacytoma) of the same compound?
**A.** 6/9

**Q.** What about the “Response rate to cyclopamine treatment” value (Eμ-Myc lymphoma cells [2]; plasmacytoma) of the same compound?
**A.** 66%

**Q.** What about the “Response rate … (responsive/tested cultures)” value (Eμ-Myc lymphoma cells [2]; plasmoblastoma) of the same compound?
**A.** 8/10 and (8/10)

**Q.** What about the “Response rate to cyclopamine treatment” value (Eμ-Myc lymphoma cells [2]; plasmoblastoma) of the same compound?
**A.** 80%

**Q.** What about the “lymphomas sensitive to Hh pathway inhibition” value (Eμ-Myc lymphoma cells [2]; all Eμ-Myc-lymphomas, sensitivity = greater than 80% growth inhibition at 5 μM) of the same compound?
**A.** 74.1%
